Test results as given in patent publication US9060529B2, “Method for treatment of lacto-N-biose-containing solution” (Morinaga Milk Industry Co., Ltd., priority 2010, dated 2015).

Key:
[1] = Test Example 2: effect of heating temperature and time on stability of LNB in neutral liquid composition (TLC); format: physicochemical; details: pH 7.0; 90° C. for 0-60 minutes or 65-88° C. for 60 minutes
Description: The LNB powder prepared in the above Production Example 1 was dissolved at a concentration of 2% in a 0.1 M phosphate buffer of pH 7.0 to prepare a sample (liquid composition containing LNB).
5 mL samples of the prepared sample were dispensed into test tubes, which were heated at 90° C. for 0, 10, 20, 30, 40, 50 or 60 minutes, or heated at 65, 67, 70, 75, 80, 85 or 88° C. for 60 minutes.
Each of the heated samples was cooled to 15° C., and the same method as that described for Test Example 1 was used to determine whether or not decomposition had occurred, and if so, the extent of that decomposition.

[2] = Test Example 3: effect of heating temperature and time on stability of LNB at various pH (2% LNB in buffer, TLC); format: physicochemical; design: key to extent of decomposition: −: no decomposition; ±: slight decomposition; +: partial decomposition; ++: majority decomposition; +++: almost total decomposition; details: for stability of LNB (decomposition by TLC): 65-120° C., 5-60 minutes
Description: Samples of the LNB powder prepared in the above Production Example 1 were dissolved at a concentration of 2% in a 0.1 M citrate buffer solution (pH: 5.5, 5.0, 4.0, 3.0) to prepare a series of liquid compositions containing LNB. Further, a portion of the LNB solution having a pH of 3.0 was used to prepare solutions having a pH of 2.0 or 1.0 by adding 1 M hydrochloric acid.
In a separate preparation, a sample of the LNB powder was dissolved at a concentration of 2% in a 0.1 M phosphate buffer having a pH of 7.0 to prepare a liquid composition containing LNB.
Sets containing the liquid compositions containing LNB at each pH value were each heated at a predetermined temperature (65, 70, 80, 90, 100 or 120° C.) for a predetermined period of time (5, 10, 20, 30 or 60 minutes).
Each of the heated liquid compositions containing LNB was cooled, and the same method as that described for Test Example 1 was used to determine whether or not decomposition had occurred, and if so, the extent of that decomposition. Based on the results, the extent of decomposition was evaluated against the criteria listed below.
• − no decomposition • ± slight decomposition • + partial decomposition • ++ majority decomposition • +++ almost total decomposition 2) Test Results: […]

extent of decomposition ([2]; pH 4.0, 65° C., 5 minutes): −
extent of decomposition ([2]; pH 4.0, 65° C., 10 minutes): −
extent of decomposition ([2]; pH 4.0, 65° C., 20 minutes): −
extent of decomposition ([2]; pH 4.0, 65° C., 30 minutes): −
extent of decomposition ([2]; pH 4.0, 65° C., 60 minutes): −
extent of decomposition ([2]; pH 4.0, 70° C., 5 minutes): −
extent of decomposition ([2]; pH 4.0, 70° C., 10 minutes): −
extent of decomposition ([2]; pH 4.0, 70° C., 20 minutes): −
extent of decomposition ([2]; pH 4.0, 70° C., 30 minutes): −
extent of decomposition ([2]; pH 4.0, 70° C., 60 minutes): −
extent of decomposition ([2]; pH 4.0, 80° C., 5 minutes): −
extent of decomposition ([2]; pH 4.0, 80° C., 10 minutes): −
extent of decomposition ([2]; pH 4.0, 80° C., 20 minutes): −
extent of decomposition ([2]; pH 4.0, 80° C., 30 minutes): −
extent of decomposition ([2]; pH 4.0, 80° C., 60 minutes): −
extent of decomposition ([2]; pH 4.0, 90° C., 5 minutes): −
extent of decomposition ([2]; pH 4.0, 90° C., 10 minutes): −
extent of decomposition ([2]; pH 4.0, 90° C., 20 minutes): −
extent of decomposition ([2]; pH 4.0, 90° C., 30 minutes): −
extent of decomposition ([2]; pH 4.0, 90° C., 60 minutes): −
extent of decomposition ([2]; pH 4.0, 100° C., 5 minutes): −
extent of decomposition ([2]; pH 4.0, 100° C., 10 minutes): −
extent of decomposition ([2]; pH 4.0, 100° C., 20 minutes): −
extent of decomposition ([2]; pH 4.0, 100° C., 30 minutes): −
extent of decomposition ([2]; pH 4.0, 100° C., 60 minutes): −
extent of decomposition ([2]; pH 4.0, 120° C., 5 minutes): −
extent of decomposition ([2]; pH 4.0, 120° C., 10 minutes): −
extent of decomposition ([2]; pH 4.0, 120° C., 20 minutes): −
extent of decomposition ([2]; pH 4.0, 120° C., 30 minutes): −
extent of decomposition ([2]; pH 4.0, 120° C., 60 minutes): −
extent of decomposition ([2]; pH 5.0, 65° C., 5 minutes): −
extent of decomposition ([2]; pH 5.0, 65° C., 10 minutes): −
extent of decomposition ([2]; pH 5.0, 65° C., 20 minutes): −
extent of decomposition ([2]; pH 5.0, 65° C., 30 minutes): −
extent of decomposition ([2]; pH 5.0, 65° C., 60 minutes): −
extent of decomposition ([2]; pH 5.0, 70° C., 5 minutes): −
extent of decomposition ([2]; pH 5.0, 70° C., 10 minutes): −
extent of decomposition ([2]; pH 5.0, 70° C., 20 minutes): −
extent of decomposition ([2]; pH 5.0, 70° C., 30 minutes): −
extent of decomposition ([2]; pH 5.0, 70° C., 60 minutes): −
extent of decomposition ([2]; pH 5.0, 80° C., 5 minutes): −
extent of decomposition ([2]; pH 5.0, 80° C., 10 minutes): −
extent of decomposition ([2]; pH 5.0, 80° C., 20 minutes): −
extent of decomposition ([2]; pH 5.0, 80° C., 30 minutes): −
extent of decomposition ([2]; pH 5.0, 80° C., 60 minutes): −
extent of decomposition ([2]; pH 5.0, 90° C., 5 minutes): −
extent of decomposition ([2]; pH 5.0, 90° C., 10 minutes): −
extent of decomposition ([2]; pH 5.0, 90° C., 20 minutes): −
extent of decomposition ([2]; pH 5.0, 90° C., 30 minutes): −
extent of decomposition ([2]; pH 5.0, 90° C., 60 minutes): −
extent of decomposition ([2]; pH 5.0, 100° C., 5 minutes): −
extent of decomposition ([2]; pH 5.0, 100° C., 10 minutes): −
extent of decomposition ([2]; pH 5.0, 100° C., 20 minutes): −
extent of decomposition ([2]; pH 5.0, 100° C., 30 minutes): −
extent of decomposition ([2]; pH 5.0, 100° C., 60 minutes): ±
extent of decomposition ([2]; pH 5.0, 120° C., 5 minutes): −
extent of decomposition ([2]; pH 5.0, 120° C., 10 minutes): −
extent of decomposition ([2]; pH 5.0, 120° C., 20 minutes): ±
extent of decomposition ([2]; pH 5.0, 120° C., 30 minutes): ±
extent of decomposition ([2]; pH 5.0, 120° C., 60 minutes): ±
extent of decomposition ([2]; pH 5.5, 65° C., 5 minutes): −
extent of decomposition ([2]; pH 5.5, 65° C., 10 minutes): −
extent of decomposition ([2]; pH 5.5, 65° C., 20 minutes): −
extent of decomposition ([2]; pH 5.5, 65° C., 30 minutes): −
extent of decomposition ([2]; pH 5.5, 65° C., 60 minutes): −
extent of decomposition ([2]; pH 5.5, 70° C., 5 minutes): −
extent of decomposition ([2]; pH 5.5, 70° C., 10 minutes): −
extent of decomposition ([2]; pH 5.5, 70° C., 20 minutes): −
extent of decomposition ([2]; pH 5.5, 70° C., 30 minutes): −
extent of decomposition ([2]; pH 5.5, 70° C., 60 minutes): −
extent of decomposition ([2]; pH 5.5, 80° C., 5 minutes): −
extent of decomposition ([2]; pH 5.5, 80° C., 10 minutes): −
extent of decomposition ([2]; pH 5.5, 80° C., 20 minutes): −
extent of decomposition ([2]; pH 5.5, 80° C., 30 minutes): −
extent of decomposition ([2]; pH 5.5, 80° C., 60 minutes): −
extent of decomposition ([2]; pH 5.5, 90° C., 5 minutes): −
extent of decomposition ([2]; pH 5.5, 90° C., 10 minutes): −
extent of decomposition ([2]; pH 5.5, 90° C., 20 minutes): −
extent of decomposition ([2]; pH 5.5, 90° C., 30 minutes): −
extent of decomposition ([2]; pH 5.5, 90° C., 60 minutes): ±
extent of decomposition ([2]; pH 5.5, 100° C., 5 minutes): −
extent of decomposition ([2]; pH 5.5, 100° C., 10 minutes): −
extent of decomposition ([2]; pH 5.5, 100° C., 20 minutes): −
extent of decomposition ([2]; pH 5.5, 100° C., 30 minutes): ±
extent of decomposition ([2]; pH 5.5, 100° C., 60 minutes): +
extent of decomposition ([2]; pH 5.5, 120° C., 5 minutes): −
extent of decomposition ([2]; pH 5.5, 120° C., 10 minutes): ±
extent of decomposition ([2]; pH 5.5, 120° C., 20 minutes): +
extent of decomposition ([2]; pH 5.5, 120° C., 30 minutes): +
extent of decomposition ([2]; pH 5.5, 120° C., 60 minutes): +
extent of decomposition ([2]; pH 7.0, 100° C., 5 minutes): +
extent of decomposition ([2]; pH 7.0, 100° C., 10 minutes): +
extent of decomposition ([2]; pH 7.0, 100° C., 20 minutes): ++
extent of decomposition ([2]; pH 7.0, 100° C., 30 minutes): ++
extent of decomposition ([2]; pH 7.0, 100° C., 60 minutes): +++
extent of decomposition ([2]; pH 7.0, 120° C., 5 minutes): ++
extent of decomposition ([2]; pH 7.0, 120° C., 10 minutes): +++
extent of decomposition ([2]; pH 7.0, 120° C., 20 minutes): +++
extent of decomposition ([2]; pH 7.0, 120° C., 30 minutes): +++
extent of decomposition ([2]; pH 7.0, 120° C., 60 minutes): +++
Structure (SMILES): CC(=O)N[C@H]1C(O)O[C@H](CO)[C@@H](O)[C@@H]1O[C@@H]1O[C@H](CO)[C@H](O)[C@H](O)[C@H]1O (stereo partly shown) [LNB, Lacto-N-biose]
stability of LNB (decomposition by TLC) [1]: decomposed or denatured products were detected under all of the different heat treatment conditions
stability of LNB (decomposition by TLC) ([2]; pH 7.0 or 1.0): decomposition occurred even after heating for 5 minutes
stability of LNB (decomposition by TLC) ([2]; pH not less than 2.0 to not more than 5.5): stable and underwent almost no decomposition
